Experimental data: PMC7464027, “Design of Curcumin and Flavonoid Derivatives with Acetylcholinesterase and Beta-Secretase Inhibitory Activities Using in Silico Approaches” (Molecules, 2020)

What was measured:
[1] = target: T1, beta-secretase (BACE-1) (Homo sapiens, UniProt P56817); test: fluorescent BACE-1 activity detection kit (Sigma-Aldrich); type: biochemical
T1 construct: gene BACE1

[2] = target: Acetylcholinesterase (AChE) (Electrophorus electricus, UniProt O42275); test: Ellman's assay with electric eel AChE; type: biochemical
Acetylcholinesterase (AChE), sequence (O42275 24-633): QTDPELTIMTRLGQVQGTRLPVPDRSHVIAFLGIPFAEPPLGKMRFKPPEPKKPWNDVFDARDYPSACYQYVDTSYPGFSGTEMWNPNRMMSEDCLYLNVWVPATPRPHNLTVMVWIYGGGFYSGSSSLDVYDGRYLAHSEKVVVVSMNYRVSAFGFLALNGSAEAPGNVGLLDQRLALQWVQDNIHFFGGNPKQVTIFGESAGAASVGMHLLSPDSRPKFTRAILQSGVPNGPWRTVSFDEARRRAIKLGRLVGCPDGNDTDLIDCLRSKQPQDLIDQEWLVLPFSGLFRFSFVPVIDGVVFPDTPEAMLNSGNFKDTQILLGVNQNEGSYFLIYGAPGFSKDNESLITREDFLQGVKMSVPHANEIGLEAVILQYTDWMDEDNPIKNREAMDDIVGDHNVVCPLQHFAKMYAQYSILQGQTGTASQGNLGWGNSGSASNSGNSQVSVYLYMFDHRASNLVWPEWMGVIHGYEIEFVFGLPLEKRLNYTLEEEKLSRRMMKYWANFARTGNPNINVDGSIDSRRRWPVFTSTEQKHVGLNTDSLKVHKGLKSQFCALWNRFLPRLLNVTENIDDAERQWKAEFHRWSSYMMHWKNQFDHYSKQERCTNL

T1 sequence (P56817 46-457): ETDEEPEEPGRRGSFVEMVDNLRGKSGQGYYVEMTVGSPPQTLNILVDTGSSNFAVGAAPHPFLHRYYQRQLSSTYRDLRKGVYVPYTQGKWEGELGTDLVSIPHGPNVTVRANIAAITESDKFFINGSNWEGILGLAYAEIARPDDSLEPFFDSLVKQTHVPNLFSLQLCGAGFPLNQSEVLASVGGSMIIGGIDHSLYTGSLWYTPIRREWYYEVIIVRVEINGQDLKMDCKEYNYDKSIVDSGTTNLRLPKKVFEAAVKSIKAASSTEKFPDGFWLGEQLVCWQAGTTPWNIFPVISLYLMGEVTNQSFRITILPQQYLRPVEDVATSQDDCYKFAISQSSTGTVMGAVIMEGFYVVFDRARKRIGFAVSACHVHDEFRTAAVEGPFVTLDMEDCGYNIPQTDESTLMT

SMILES	IC50 [1] [µM]	IC50 [2] [µM]
CCOc1cc(C(=O)O)c(C(=O)CCc2ccccc2)c(N(C)C)c1 [F9, 3-(dimethylamino)-5-ethoxy-2-(3-phenylpropanoyl)benzoic acid]	1.85 ± 0.33	30 ± 1.24
CN(C)c1cccc(CCC(=O)c2cc(O)ccc2N(C)C)c1 [F24, 1-(2-(dimethylamino)-5-hydroxyphenyl)-3-(3-(dimethylamino)phenyl)propan-1-one]	3.52 ± 0.77	80.5 ± 3.07
